In article PMC6446070, “Discovery of novel isoflavone derivatives as AChE/BuChE dual-targeted inhibitors: synthesis, biological evaluation and molecular modelling” (Journal of Enzyme Inhibition and Medicinal Chemistry, 2017):
Where two headings read alike, the source gives them in different places.

Assays:
BuChE = target: T1, BuChE (Homo sapiens, UniProt P06276); assay: biochemical; conditions: for inhibition at 50 µM: read-out: Inhibition % at 50 μM BuChE
T1 construct: BuChE (3.4 U/mg) was obtained from human plasma; from tissue; host or cells: human plasma
Protocol: (§1) To measure in vitro AChE/BuChE activity, modified Ellman's method[27–30] was performed using a 96-well plate reader (BioTek ELx808). AChE (0.5 U/mg) was extracted from rat cortex while BuChE (3.4 U/mg) was obtained from human plasma. Each well contained 50 μl potassium phosphate buffer (KH2PO4/K2HPO4, 0.1 M, pH 8.0), 25 μl test compounds and 25 μl enzyme. […] They were pre-incubated for 60 min at 37 °C, and then 125 μl 5,5′-dithiobis-2-nitrobenzoic acid (DNTB, 3 mM in buffer) was added. […] A control experiment was performed under the same condition without any inhibitor and the blank contained buffer, water, DTNB and substrate. The described method was also performed for BuChE bioassay.

AChE = target: T2, AChE (Rattus norvegicus, UniProt P37136); assay: biochemical; conditions: for inhibition at 50 µM: read-out: Inhibition % at 50 μM AChE
T2 construct: AChE (0.5 U/mg) was extracted from rat cortex; from tissue; host or cells: rat cortex
Protocol: as §1

[1] = 50 μM compound, BuChE from human plasma, pre-incubated 60 min at 37 °C
[2] = 50 μM compound, AChE extracted from rat cortex, pre-incubated 60 min at 37 °C
[3] = BuChE from human plasma, read-out: IC50 (μM) BuChE

T1 sequence (P06276 29-602): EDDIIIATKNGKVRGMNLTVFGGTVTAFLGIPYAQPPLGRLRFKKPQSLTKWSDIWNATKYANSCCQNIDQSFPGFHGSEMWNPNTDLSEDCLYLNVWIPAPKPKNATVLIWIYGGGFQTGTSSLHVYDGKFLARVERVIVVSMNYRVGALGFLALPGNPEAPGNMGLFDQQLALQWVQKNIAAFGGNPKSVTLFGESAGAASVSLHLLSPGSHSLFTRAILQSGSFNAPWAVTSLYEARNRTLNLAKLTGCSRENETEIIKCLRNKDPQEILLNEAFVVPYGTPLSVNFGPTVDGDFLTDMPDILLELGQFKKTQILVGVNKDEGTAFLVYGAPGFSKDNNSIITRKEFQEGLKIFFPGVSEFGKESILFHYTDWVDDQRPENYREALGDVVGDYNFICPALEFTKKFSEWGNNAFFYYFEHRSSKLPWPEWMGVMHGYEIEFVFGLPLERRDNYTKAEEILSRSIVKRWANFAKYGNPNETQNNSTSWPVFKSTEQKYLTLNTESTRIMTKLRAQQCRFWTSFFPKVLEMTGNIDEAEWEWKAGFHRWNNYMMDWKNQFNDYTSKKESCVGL
T2 sequence (P37136 32-614): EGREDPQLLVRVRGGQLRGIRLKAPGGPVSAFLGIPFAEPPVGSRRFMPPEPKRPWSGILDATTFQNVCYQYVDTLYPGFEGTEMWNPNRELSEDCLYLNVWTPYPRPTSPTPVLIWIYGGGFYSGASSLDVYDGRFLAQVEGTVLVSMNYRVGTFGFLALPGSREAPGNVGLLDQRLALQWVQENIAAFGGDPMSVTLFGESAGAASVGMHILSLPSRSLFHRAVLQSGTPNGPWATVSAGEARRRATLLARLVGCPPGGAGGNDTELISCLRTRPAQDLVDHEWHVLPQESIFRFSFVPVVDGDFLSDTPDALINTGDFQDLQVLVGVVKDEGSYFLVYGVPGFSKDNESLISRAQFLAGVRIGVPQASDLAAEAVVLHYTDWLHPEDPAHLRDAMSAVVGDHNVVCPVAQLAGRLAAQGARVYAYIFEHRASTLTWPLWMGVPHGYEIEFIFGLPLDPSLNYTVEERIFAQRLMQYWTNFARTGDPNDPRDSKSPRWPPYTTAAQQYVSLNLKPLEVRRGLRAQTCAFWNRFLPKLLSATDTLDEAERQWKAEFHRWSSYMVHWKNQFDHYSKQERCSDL

Compound	inhibition at 50 µM (BuChE; [1]) [%]	inhibition at 50 µM (AChE; [2]) [%]	IC50 (BuChE; [3]) [µM]	other results
CCN(C)CCCCOc1ccc2c(=O)c(-c3ccc(OC)cc3)coc2c1 [compound 6, 7-(4-(Ethyl(methyl)amino)butoxy)-3-(4-methoxyphenyl)-4H-chromen-4-one]	94.8	63.8	–	–
COc1ccc(-c2coc3cc(OCCN4CCCCC4)cc(O)c3c2=O)cc1 [compound 1, 5-Hydroxy-3-(4-mehtoxyphenyl)-7-(2-(piperidin-1-yl)ethoxy)-4H-chromen-4-one]	–	–	4.12	Inhibition % at 50 μM BuChE (BuChE; [1]): 95.74%; Inhibition % at 50 μM AChE (AChE; [2]): 71.10%; IC50 (AChE; AChE extracted from rat cortex): 10.3 µM
COc1ccc(-c2coc3cc(OCCOC(=O)N4CCCCC4)ccc3c2=O)cc1 [compound 19, 2-((3-(4-Methoxyphenyl)-4-oxo-4H-chromen-7-yl)oxy)ethyl piperidine-1-carboxylate]	–	–	–	IC50 (BuChE): 9.59 µM; inhibition at 50 µM (BuChE): 53%; inhibition at 50 µM (AChE): -11.6%
CCN(C)CCOc1ccc2c(=O)c(-c3ccc(OC)cc3)coc2c1 [compound 4, 7-(2-(Ethyl(methyl)amino)ethoxy)-3-(4-methoxyphenyl)-4H-chromen-4-one]	84.1	58.7	–	–
COc1ccc(-c2coc3cc(OCCCNCCc4c[nH]c5ccc(OC)cc45)ccc3c2=O)cc1 [compound 8, 7-(3-((2-(5-Methoxy-1H-indol-3-yl)ethyl)amino)propoxy)-3-(4-methoxyphenyl)-4H-chromen-4-one]	60.6	2.42	15.6	–
COc1ccc(-c2coc3cc(OCC(=O)N4CCCCC4)ccc3c2=O)cc1 [compound 17, 3-(4-Methoxyphenyl)-7-(2-oxo-2-(piperidin-1-yl)ethoxy)-4H-chromen4-one]	-2.83	0.54	–	–
O=c1c(-c2ccc(O)cc2)coc2cc(OCCN3CCCCC3)ccc12 [compound 14, 3-(4-Hydroxyphenyl)-7-(2-(piperidin-1-yl)ethoxy)-4H-chromen-4-one]	99.9	79.4	7.66	IC50 (AChE; AChE extracted from rat cortex): 9.75 µM
COc1ccc(-c2coc3cc(OCCN(Cc4ccccc4)Cc4ccccc4)ccc3c2=O)cc1 [compound 11, 7-(2-(Dibenzylamino)ethoxy)-3-(4-methoxyphenyl)-4H-chromen-4-one]	-18.5	-6.27	–	–
COc1ccc(-c2coc3cc(OCCCCN4CCCCC4)ccc3c2=O)cc1 [compound 3, 3-(4-Methoxyphenyl)-7-(4-(piperidin-1-yl)butoxy)-4-H-chromen-4-one]	–	–	11.1	Inhibition % at 50 μM BuChE (BuChE; [1]): 98.11%; Inhibition % at 50 μM AChE (AChE; [2]): 85.65%; IC50 (AChE; AChE extracted from rat cortex): 46.4 µM
O=c1c(-c2ccc(OCCN3CCCCC3)cc2)coc2cc(OCCN3CCCCC3)ccc12 [compound 16, 7-(2-(Piperidin-1-yl)ethoxy)-3-(4-(2-(piperidin-1-yl)ethoxy)phenyl)-4H-chrom en-4-one]	99.7	100	5.92	IC50 (AChE; AChE extracted from rat cortex): 4.6 µM
COc1ccc(-c2coc3cc(OCCNCCc4c[nH]c5ccc(OC)cc45)ccc3c2=O)cc1 [compound 7, 7-(2-((2-(5-Methoxy-1H-indol-3-yl)ethyl)amino)ethoxy)-3-(4-methoxyphenyl)-4H-chr-omen-4-one]	–	–	–	Inhibition % at 50 μM BuChE (BuChE; [1]): 45.74%; Inhibition % at 50 μM AChE (AChE; [2]): 3.68%
COc1ccc(-c2coc3cc(OCCCCNCCc4c[nH]c5ccc(OC)cc45)ccc3c2=O)cc1 [compound 9, 7-(4((2-(5-Methoxy-1H-indol-3-yl)ethyl)amino)butoxy)-3-(4-methoxyphenyl)-4H-chromen-4-one]	37.9	0.72	–	–
C#CCNCCOc1ccc2c(=O)c(-c3ccc(OC)cc3)coc2c1 [compound 12, 3-(4-Methoxyphenyl)-7-(2-(prop-2-yn-1-ylamino)ethoxy)-4H-chromen-4-one]	-16.9	5.47	–	–
CCN(C)CCCOc1ccc2c(=O)c(-c3ccc(OC)cc3)coc2c1 [compound 5, 7-(3-(Ethyl(methyl)amino)propoxy)-3-(4-methoxyphenyl)-4H-chromen-4-one]	91.3	25.4	–	–
COc1ccc(-c2coc3cc(OCCN4CCCCC4C)ccc3c2=O)cc1 (stereo not shown) [G]	–	–	3.37	IC50 (AChE; AChE extracted from rat cortex): 1.47 µM
COc1ccc(-c2coc3cc(OCCN(C)Cc4ccccc4)ccc3c2=O)cc1 [compound 10, 7-(2-(Benzyl(methyl)amino)ethoxy)-3-(4-methoxyphenyl)-4H-chromen-4-one]	2.72	3.34	–	–
COc1ccc(-c2coc3cc(OCCCN4CCCCC4)ccc3c2=O)cc1 [compound 2, 3-(4-Methoxyphenyl)-7-(3-(piperidin-1-yl)propoxy)-4H-chromen-4-one]	97	28.3	23.2	–
COc1ccc(-c2coc3cc(OCCNC45CC6C[C@@](C)(C4)C[C@](C)(C6)C5)ccc3c2=O)cc1 [compound 13, 7-(2-(((3 R,5 S,7r)-3,5-dimethyladamantan-1-yl)amino)ethoxy)-3-(4-methoxyphenyl)-4H-chromen-4-one]	–	–	–	Inhibition % at 50 μM BuChE (BuChE; [1]): −6.62%; Inhibition % at 50 μM AChE (AChE; [2]): 17.61%
O=c1c(-c2ccc(O)cc2)coc2cc(OCCN3CCCC3)ccc12 [compound 15, 3-(4-Hyroxyphenyl)-7-(2-(pyrrolidin-1-yl)ethoxy)-4H-chromen-4-one]	–	–	7.19	Inhibition % at 50 μM BuChE (BuChE; [1]): 99.88%; Inhibition % at 50 μM AChE (AChE; [2]): 75.22%
CC(C)NP(=O)(NC(C)C)OP(=O)(NC(C)C)NC(C)C [Iso-OMPA, tetraisopropyl pyrophosphoramide, reference compound]	–	–	–	inhibition at 50 µM (BuChE): 94.3%
COc1ccc(-c2coc3cc(OCCC(=O)N4CCCCC4)ccc3c2=O)cc1 [compound 18, 3-(4-Methoxyphenyl)-7-(3-oxo-3-(piperidin-1-yl)propoxy)-4H-chromen-4-one]	5.59	-2.36	–	–
C#CCNC(=O)OCCOc1ccc2c(=O)c(-c3ccc(OC)cc3)coc2c1 [compound 20, 2-((3-(4-Methoxyphenyl)-4-oxo-4H-chromen-7-yl)oxy)ethyl prop-2-yn-1-ylc-arbamate]	–	–	–	Inhibition % at 50 μM BuChE (BuChE; [1]): −5.49%; Inhibition % at 50 μM AChE (AChE; [2]): −4.84%
